# Patent publication US7655431B2, “Compositions and methods based upon the kinase haspin” (The Brigham and Women's Hospital, Inc., priority 2004, dated 2010)
# Where “and” joins values, the source holds several entries; their conditions need not be identical. Equal entries are not always repeated.
# Key:
# [1] = test system: HeLa Tet-On cells transfected with vector alone; test: proliferation and cell cycle of vector-transfected HeLa Tet-On cells with doxycycline; type: cell-based, human
# Source text: Using customized double stranded adapters, full length human haspin cDNA (amino acids 1-798, Higgins, Gene 267:55-69 (2001)) was ligated into the Hind III-Xba I sites of the expression vector pcDNA3 (Invitrogen) and, to generate myc-tagged haspin, cDNA encoding residues 2-798 was inserted into the pcDNA3-derived plasmid pCANmyc1. To generate a plasmid encoding EGFP-haspin, haspin cDNA encoding amino acids 2-798 is inserted into the Sac II-BamH I sites of pEGFP-C1 (Clontech). To generate inducible vectors, cDNA encoding myc-haspin from pCANmyc-haspin (Hind III-EcoR V) is blunt-ended and inserted into the Pvu II site of pTRE2/pur (BD Clontech) and Nhe I-Xba I fragments encoding EGFP-haspin or EGFP alone from pEGFP-haspin or pEGFP-C1, respectively are ligated into the Nhe I site of pTRE2pur. All constructs are verified by DNA sequencing. Transient transfection is carried out using Lipofectamine 2000 (Invitrogen). Stable transfection of HeLa Tet-On (BD Clontech) cells is carried out using Lipofectin with Plus Reagent (Invitrogen). After 24 h, cells are transferred to 96-well plates and incubated in medium containing 1 μg/ml puromycin and 100 μg/ml G418. Clones expressing myc-haspin or EGFP-haspin in the presence, but not absence, of 1 μg/ml doxycycline are selected by anti-myc immunoblotting or flow cytometric analysis of EGFP fluorescence respectively. […]
# 6His-haspin kinase = molecular target: T1, 6His-haspin kinase (Homo sapiens, UniProt Q8TF76); test: ELISA-based microtiter plate haspin kinase assay; type: biochemical; settings: 100 μM ATP, 10 mM MnCl2, 20 min 37° C.
# T1 construct: insertion of a PCR product encoding residues 471-798 of human haspin into the PshA I site of the vector pET45b(+); 6His (N); made in house; host or cells: E. coli BL21
# T1 sequence (Q8TF76 471-798): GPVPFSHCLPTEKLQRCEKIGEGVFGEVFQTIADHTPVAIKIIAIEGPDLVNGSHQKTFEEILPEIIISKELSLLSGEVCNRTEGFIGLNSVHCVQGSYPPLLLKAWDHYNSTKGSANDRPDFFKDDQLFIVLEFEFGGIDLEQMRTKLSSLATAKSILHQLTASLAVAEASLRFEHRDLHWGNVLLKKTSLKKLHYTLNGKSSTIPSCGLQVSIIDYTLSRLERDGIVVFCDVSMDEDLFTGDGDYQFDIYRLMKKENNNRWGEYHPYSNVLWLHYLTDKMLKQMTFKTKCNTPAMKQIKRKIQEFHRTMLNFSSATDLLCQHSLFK
# Description: In these assays, H3-GST substrate protein (or H3-T3A-GST non-phosphorylable control) was immobilized on 96-well microtiter plates by incubation in PBS overnight at 4° C. Following washing and blocking with 1% BSA/TBS, 6His-haspin kinase was added to the wells in 50 μl total volume of Hepes-buffered saline (HBS)/100 μM ATP/10 mM MnCl2 and allowed to phosphorylate the immobilized substrate for 20 min at 37° C. After washing thrice with TBS/0.1% Tween-20, affinity-purified polyclonal anti-phospho-histone H3 (Thr-3) antibodies were added for 1 h at room temperature. After washing, antibody binding (i.e. phosphorylation) was detected using 1/2000 dilution of donkey anti-rabbit IgG-Horse Radish […] (HRP) conjugate (Jackson) followed by tetramethylbenzidine (TMB) color development (BD Biosciences). Measurement of A450 nm-A570 nm (to correct for well-to-well variation in background absorbance) was carried out after addition of H2SO4.
Compound,"cell number relative to uninduced control ([1]; after 8 days, two experiments, vector alone)",cell cycle progression ([1]; vector-transfected cells),haspin kinase activity (phosphorylation of immobilized H3-GST) (6His-haspin kinase)
"C[C@H]1c2cccc(O)c2C(=O)C2=C(O)[C@]3(O)C(=O)C(C(N)=O)=C(O)[C@@H](N(C)C)[C@@H]3[C@@H](O)[C@@H]21 [Doxycycline, doxycycline]",104% and 115%,no effect,–
O=C(O)CN(CCN(CC(=O)O)CC(=O)O)CC(=O)O [EDTA],–,–,inhibition
ARTKQTAR [H3(1-8)],–,–,inhibition
